Results published in ChEMBL document CHEMBL1201862, “PubChem BioAssay data set” (2004).
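Briefly, cells in 96-well plates were exposed to five compound concentrations for 48 h, and endpoints were estimated by linear interpolation. GI50: concentration for 50% inhibition of growth.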 Calls of active or inactive are those of the source. Rule as the data show it: active = GI50 up to about 1.1 µM and inactive = higher.

Assays:
Assay in all cases: NCI-60 cell line screen, 48 h
UACC-62 = system: UACC-62
SK-MEL-5 = system: SK-MEL-5
SNB-75 = system: SNB-75
IGROV-1 = system: IGROV-1
TK-10 = system: TK-10
HL-60 = system: HL-60
SN12C = system: SN12C
Malme-3M = system: Malme-3M
HCT-15 = system: HCT-15
LOX IMVI = system: LOX IMVI
NCI-H226 = system: NCI-H226
SF-295 = system: SF-295
HT-29 = system: HT-29
SK-OV-3 = system: SK-OV-3
U-251 = system: U-251
COLO 205 = system: COLO 205
HCC 2998 = system: HCC 2998
786-0 = system: 786-0

SMILES | GI50 (UACC-62) | GI50 (SK-MEL-5) | GI50 (SNB-75) | GI50 (IGROV-1) | GI50 (TK-10) | GI50 (HL-60) | GI50 (SN12C) | GI50 (Malme-3M) | GI50 (HCT-15) [µM] | GI50 (LOX IMVI) | GI50 (NCI-H226) | GI50 (SF-295) | GI50 (HT-29) | GI50 (SK-OV-3) | GI50 (U-251) | GI50 (COLO 205) | GI50 (HCC 2998) | GI50 (786-0)
CCOC(=O)C1CCn2c(nc3c(=O)n(C)c(=O)n(C)c32)S1 (configuration not stated) | > 100 µM (inactive) | > 100 µM (inactive) | > 100 µM (inactive) | > 100 µM (inactive) | > 100 µM (inactive) | > 100 µM (inactive) | > 100 µM (inactive) | > 100 µM (inactive) | > 100 | > 100 µM (inactive) | > 100 µM (inactive) | > 100 µM (inactive) | > 100 µM (inactive) | > 100 µM (inactive) | > 100 µM (inactive) |  |  | 
O=C(O)CCCCCCC[C@H]1S[C@H]1CCCCCCO | > 100 µM (inactive) | > 100 µM (inactive) |  | > 100 µM (inactive) | > 100 µM (inactive) | > 100 µM (inactive) |  | > 100 µM (inactive) | > 100 |  |  | > 100 µM (inactive) | > 100 µM (inactive) | > 100 µM (inactive) | > 100 µM (inactive) | > 100 µM (inactive) | > 100 µM (inactive) | > 100 µM (inactive)
O=C(CC1(O)C(=O)Nc2c(Cl)cc(Cl)cc21)c1ccco1 (configuration not stated) |  | 77.6 µM (inactive) | 29 µM (inactive) |  | 88.1 µM (inactive) | 20.8 µM (inactive) | 63.8 µM (inactive) | > 100 µM (inactive) | 40.5 | 33.1 µM (inactive) | 23.3 µM (inactive) | 32 µM (inactive) | 52.7 µM (inactive) | > 100 µM (inactive) | > 100 µM (inactive) | > 100 µM (inactive) | 48.8 µM (inactive) | 23.7 µM (inactive)
COc1ccc(/C=C(\C2=NC(=O)CS2)c2nc3ccccc3[nH]2)cc1 | > 100 µM (inactive) | 37.6 µM (inactive) | 28.1 µM (inactive) | 52.1 µM (inactive) | > 100 µM (inactive) | > 100 µM (inactive) | 52.4 µM (inactive) | 69.3 µM (inactive) | 83.8 |  | 8.95 µM (inactive) | 37.2 µM (inactive) | > 100 µM (inactive) | 15.8 µM (inactive) | 42.3 µM (inactive) | > 100 µM (inactive) | < 0.01 µM (active) | 
COC(=O)N1C=Cc2c(c(C)c3c([nH]c4ccccc43)c2C)C1C (configuration not stated) | 18 µM (inactive) | 15.3 µM (inactive) | 15.3 µM (inactive) | 25.2 µM (inactive) | 19.6 µM (inactive) | 19.2 µM (inactive) |  | 18.1 µM (inactive) | 10.6 | 16.4 µM (inactive) | 17.6 µM (inactive) | 13.7 µM (inactive) | 11.3 µM (inactive) | 27.4 µM (inactive) | 16 µM (inactive) | 18.7 µM (inactive) | 16.8 µM (inactive) | 13.2 µM (inactive)
COC(C(O)c1ccc2c(c1)OCO2)P(=O)(c1ccccc1)c1ccccc1 (configuration not stated) | 32.4 µM (inactive) | > 100 µM (inactive) | 35.9 µM (inactive) | > 100 µM (inactive) | > 100 µM (inactive) | > 100 µM (inactive) | 62.8 µM (inactive) | 16 µM (inactive) |  |  | 73.1 µM (inactive) | > 10 µM (inactive) | > 100 µM (inactive) | > 10 µM (inactive) | > 100 µM (inactive) |  |  | > 100 µM (inactive)
O=C1NC2CCCCCC2C12CCCCC2 (configuration not stated) | > 100 µM (inactive) |  | > 100 µM (inactive) | > 100 µM (inactive) | > 100 µM (inactive) | > 100 µM (inactive) | > 100 µM (inactive) | > 100 µM (inactive) | > 100 | > 100 µM (inactive) | > 100 µM (inactive) | > 100 µM (inactive) | > 100 µM (inactive) | > 100 µM (inactive) | > 100 µM (inactive) |  | > 100 µM (inactive) | 
CC(C)CC(N/C=C1/N=C(c2ccccc2)OC1=O)C(=O)O (configuration not stated) | > 100 µM (inactive) | > 100 µM (inactive) | 37.3 µM (inactive) | > 100 µM (inactive) | > 100 µM (inactive) | > 100 µM (inactive) | > 100 µM (inactive) | > 100 µM (inactive) | > 100 | > 100 µM (inactive) | > 100 µM (inactive) | > 100 µM (inactive) | > 100 µM (inactive) | > 100 µM (inactive) | > 100 µM (inactive) | > 100 µM (inactive) | > 100 µM (inactive) | > 100 µM (inactive)
CN1c2ccccc2N(C(=O)c2ccc([N+](=O)[O-])cc2)C(CC(=O)O)c2cccn21 (configuration not stated) | > 100 µM (inactive) | > 100 µM (inactive) | > 100 µM (inactive) | > 100 µM (inactive) | > 100 µM (inactive) | > 100 µM (inactive) | > 100 µM (inactive) | > 100 µM (inactive) | > 100 | > 100 µM (inactive) | > 100 µM (inactive) | > 100 µM (inactive) | > 100 µM (inactive) | > 100 µM (inactive) |  | > 100 µM (inactive) | > 100 µM (inactive) | > 100 µM (inactive)
